Assays:
Assay in all cases: relative viability (nuclei count vs DMSO), 5 days (fraction); higher = more cells survive
Quizartinib + Tozasertib = compound: CC(C)(C)c1cc(NC(=O)Nc2ccc(-c3cn4c(n3)sc3cc(OCCN5CCOCC5)ccc34)cc2)no1 [Quizartinib] + Cc1cc(Nc2cc(N3CCN(C)CC3)nc(Sc3ccc(NC(=O)C4CC4)cc3)n2)n[nH]1 [Tozasertib] (partner 0.1 µM)
In short: (§1)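 Cells from lung cancer lines were seeded into 1536-well plates and, one day later, dosed by pin tool. Treatments were either a single drug or a fixed dose of an anchor drug with five library-drug doses (not always all listed) in √10 steps. After 5 days, nuclei were stained in a one-step fixation (final 0.05% Triton X-100, 1% formaldehyde, 1 ug/ml Hoechst) and counted on 4× images, and relative viability is the treated-to-vehicle nuclei ratio, as the median of duplicate plates.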

Quizartinib + AZD7762 = compound: CC(C)(C)c1cc(NC(=O)Nc2ccc(-c3cn4c(n3)sc3cc(OCCN5CCOCC5)ccc34)cc2)no1 [Quizartinib] + NC(=O)Nc1cc(-c2cccc(F)c2)sc1C(=O)N[C@H]1CCCNC1 [AZD7762] (partner 0.2 µM)
In short: as §1

Quizartinib + OSI-027 = compound: CC(C)(C)c1cc(NC(=O)Nc2ccc(-c3cn4c(n3)sc3cc(OCCN5CCOCC5)ccc34)cc2)no1 [Quizartinib] + COc1cccc2cc(-c3nc([C@H]4CC[C@H](C(=O)O)CC4)n4ncnc(N)c34)[nH]c12 [OSI-027] (partner 0.5 µM)
In short: as §1

YM155 + Alpelisib = compound: COCC[n+]1c2c(n(Cc3cnccn3)c1C)C(=O)c1ccccc1C2=O [YM155] + Cc1nc(NC(=O)N2CCC[C@H]2C(N)=O)sc1-c1ccnc(C(C)(C)C(F)(F)F)c1 [Alpelisib] (partner 2 µM)
In short: as §1

Row | Cell Line | relative viability (Quizartinib + Tozasertib; first compound 0.001 µM) | relative viability (Quizartinib + Tozasertib; first compound 0.01 µM) | relative viability (Quizartinib + Tozasertib; first compound 0.03162 µM) | relative viability (Quizartinib + Tozasertib; first compound 0.1 µM) | relative viability (Quizartinib + AZD7762; first compound 0.001 µM) | relative viability (Quizartinib + AZD7762; first compound 0.003162 µM) | relative viability (Quizartinib + AZD7762; first compound 0.01 µM) | relative viability (Quizartinib + AZD7762; first compound 0.03162 µM) | relative viability (Quizartinib + AZD7762; first compound 0.1 µM) | relative viability (Quizartinib + OSI-027; first compound 0.001 µM) | relative viability (Quizartinib + OSI-027; first compound 0.003162 µM) | relative viability (Quizartinib + OSI-027; first compound 0.01 µM) | relative viability (Quizartinib + OSI-027; first compound 0.03162 µM) | relative viability (Quizartinib + OSI-027; first compound 0.1 µM) | relative viability (YM155 + Alpelisib; first compound 0.002 µM) | relative viability (YM155 + Alpelisib; first compound 0.006325 µM) | relative viability (YM155 + Alpelisib; first compound 0.02 µM) | relative viability (YM155 + Alpelisib; first compound 0.06325 µM) | relative viability (Quizartinib + Tozasertib; first compound 0.003162 µM)
1 | LK-2 | 0.133 | 0.145 | 0.17 | 0.142 | 0.456 | 0.405 | 0.474 | 0.244 | 0.293 | 0.182 | 0.199 | 0.185 | 0.198 | 0.182 | 1.17 | 1.05 | 1.13 | 1.12 | 
2 | LOU-NH91 | 0.472 | 0.462 | 0.649 | 0.668 | 0.749 | 0.768 | 0.739 | 0.722 | 0.827 | 0.673 | 0.749 | 0.712 | 0.742 | 0.767 | 0.767 | 0.674 | 0.76 | 0.745 | 0.693
3 | LU99A | 0.288 | 0.262 | 0.259 | 0.272 | 0.336 | 0.324 | 0.435 | 0.479 | 0.324 | 0.282 | 0.3 | 0.282 | 0.319 | 0.327 | 0.541 | 0.453 | 0.456 | 0.439 | 0.274
4 | LXF-289 | 0.16 | 0.196 | 0.21 | 0.247 | 0.816 | 1.08 | 1.09 | 1.11 | 1.12 | 0.743 | 0.791 | 0.797 | 0.89 | 0.877 | 1.02 | 1.04 | 0.967 | 0.939 | 0.207
5 | NCI-H23 |  | 0.405 | 0.249 | 0.231 | 0.302 | 0.173 | 0.277 | 0.195 | 0.25 |  | 0.561 | 0.465 | 0.507 | 0.401 | 0.707 | 0.669 | 0.71 | 0.271 | 0.343
6 | NCI-H322M | 0.393 | 0.505 | 0.511 | 0.558 | 0.531 | 0.56 | 0.557 | 0.531 | 0.705 | 0.54 | 0.568 | 0.556 | 0.517 | 0.57 | 0.762 | 0.878 | 0.666 | 0.732 | 0.468
7 | NCI-H358 | 0.0852 | 0.115 | 0.102 | 0.0995 | 0.578 | 0.448 | 0.555 |  | 0.5 | 0.706 | 0.676 | 0.768 | 0.287 | 0.72 | 0.801 | 0.871 | 0.911 | 0.283 | 0.0998
8 | NCI-H441 | 0.66 | 0.586 |  | 0.489 | 0.872 | 1.04 | 1.14 | 0.991 | 1.1 | 0.424 | 0.669 | 0.564 |  | 0.693 | 0.733 | 0.644 | 0.567 | 0.429 | 0.599
9 | NCI-H460 | 0.4 | 0.394 | 0.142 | 0.0635 |  | 0.591 | 0.648 | 0.544 | 0.621 | 0.585 | 0.593 | 0.692 | 0.341 | 0.533 | 0.433 | 0.498 | 0.436 | 0.452 | 0.401
10 | NCI-H596 | 0.642 | 0.964 | 0.803 | 0.64 | 1.12 | 1.07 | 1.02 | 1.04 | 1.32 | 0.665 | 0.745 | 0.652 | 0.663 | 0.547 |  | 0.514 | 0.499 | 0.49 | 0.838
11 | NCI-H647 | 0.267 | 0.284 | 0.329 | 0.301 | 0.39 | 0.651 | 0.422 | 0.325 | 0.566 | 0.627 | 0.654 | 0.689 | 0.596 | 0.648 | 0.989 | 1.11 | 1.09 | 0.901 | 0.258
12 | NCI-H650 | 0.706 | 0.694 | 0.689 | 0.736 | 0.858 | 0.785 | 1.25 | 0.856 | 1.13 | 0.527 | 0.505 | 0.428 | 0.548 | 0.61 | 1.14 | 1.07 | 1.15 | 0.992 | 0.676
13 | NCI-H727 | 0.594 | 0.557 | 0.648 | 0.7 | 0.667 | 0.545 | 0.564 | 0.457 | 0.759 | 0.412 | 0.624 | 0.539 | 0.869 | 0.699 | 0.499 | 0.495 | 0.586 | 0.575 | 0.654
14 | NCI-H838 | 0.249 | 0.3 | 0.276 | 0.22 | 0.769 | 0.925 | 1.04 | 0.859 | 0.902 | 0.346 | 0.4 | 0.299 | 0.38 | 0.375 | 0.971 | 0.991 | 1.05 | 0.316 | 0.22
15 | NCI-H1355 | 0.495 | 0.51 | 0.442 | 0.433 | 0.715 | 0.828 | 0.622 | 0.835 | 0.736 | 0.361 | 0.449 | 0.389 | 0.377 | 0.4 | 0.846 | 0.869 | 0.932 | 0.963 | 0.542
16 | NCI-H1395 | 0.873 | 0.782 | 0.814 | 0.682 | 0.477 | 0.395 | 0.46 | 0.367 | 0.367 | 0.697 | 0.749 | 0.645 | 0.586 | 0.691 | 1.13 | 1.24 | 1.14 | 1.12 | 0.686
17 | NCI-H1437 | 0.372 | 0.422 | 0.367 | 0.329 | 0.944 | 1.05 | 1.17 | 1.04 | 0.943 | 0.789 | 0.868 | 0.853 | 0.956 | 0.747 | 0.958 | 1.03 | 0.993 | 0.835 | 0.399
